# From patent US11034666B2, “Anti-inflammatory and antitumor 2-oxothiazoles and 2-oxothiophenes compounds” (Avexxin AS, priority 2013, dated 2021)
# Legend:
# [1] = tested on: PGE2; assay: Plasma PGE2 EIA, therapeutic CIA study; assay type: in vivo, male DBA/1 mice
# Method: There were no significant differences between the treatment groups (p>0.05).
# PGE2 EIA analysis of blood plasma from the prophylactic and therapeutic CIA studies was performed according to kit protocol. Plasma samples were diluted 1:1000-1:6000 in EIA buffer and allowed to hybridize over-night (18 hrs, 4° C.). The plate was read using a Multiscan plate reader (Ascent Labsystems) (OD550 nm). The corresponding Ascent software for Multiscan, Version 2.4.1 was used to obtain the data. PGE2 levels for all treatments are shown relative to the DMSO-treated vehicle arthritic mice (n=10-11 mice in each category±SD).
# For the prophylactic and the therapeutic studies, CIA was induced in male DBA/1 mice (except naïve mice) by immunization with 0.1 mL emulsion containing an equal volume of bovine type II collagen solution (2 mg/mL) and Freuds Complete Adjuvant at the tail base. The first injection was given on Day 0 and the second injection as booster was given on Day 21 (41-43). COMPOUND A, vehicle (DMSO) and MTX (0.3 mg/kg) were administered daily, Enbrel (25 mg/kg) was administrated twice a week. For the prophylactic study, treatment started one hour before the second collagen injection and continued for 21 days except for the histology groups that were sacrificed at Day 13 ([…]). For the therapeutic study, treatment started at Day 28 and continued for 14 days.
# [2] = tested on: collagen-induced arthritis (CIA) mouse model; assay: Therapeutic collagen-induced arthritis (CIA) study; assay type: in vivo, male DBA/1 mice; conditions: Days 36 to 41; Compound A 30 mg/kg ip daily; Enbrel 25 mg/kg twice a week
# Description: The therapeutic effect of Compound A on CIA model in male DBA/1 mice following ip administration, treatment starting 7 days after the last immunization was explored. CIA developed rapidly in mice immunized with CII, with maximum AI of 10.2 observed at 39 days post immunization. The AI and incidence of vehicle- and Compound A treated groups increased in a time-dependent mode from Days 29 to 41. […] Compound A and Enbrel performed equally well; there were no significant difference between these treatments groups.
# Separate prophylactic and therapeutic efficacy studies of COMPOUND A were performed. […] Body weights were measured and recorded prior to randomization and then once daily during the study. Food consumption was measured and recorded daily. […] Necropsy examinations were performed at study termination; plasma samples were collected, organ weights were recorded […]
# CIA Assessment and Treatment. CIA was assessed in mice by two blinded observers to measure paw swelling with a capacity measurement method on Day 0, Day 20, Day 22, Day 25, Day 27, Day 29, Day 32, Day 34, Day 36, Day 39 and Day 41 after the first injection. […] However, the values measured were not included in the mean value calculations of the main groups. […]
structure (smiles),measurement,setting,value
"CCCCCCCCc1ccc(OCC(=O)c2nc(C(=O)OC)cs2)cc1 [Compound A, Methyl 2-(2-(4-octylphenoxy)acetyl)thiazole-4-carboxylate]",plasma PGE2 level,"[1]; therapeutic CIA study, Compound A 30 mg/kg, Enbrel 25 mg/kg, vehicle 231.1±110, mean ± SD",139 ± 55 ng/mL
same,reduction of plasma PGE2 levels,"[1]; therapeutic mode, vs vehicle",about 40%
same,arthritic index (AI) in comparison to the CIA control group (in words),[2],significantly decreased
